Experimental data as given in publication PMC4177084 (Journal of Thyroid Research, 2014).

Experiments:
HGK = biological target: T1, HGK (Homo sapiens, UniProt O95819); experiment: Cell free kinase inhibition assay; assay type: biochemical
T1 construct: purchased Carna Biosciences, Inc. (Kobe, Japan)

EPHB2 = biological target: T2, EPHB2 (Homo sapiens, UniProt P29323); experiment: Cell free kinase inhibition assay; assay type: biochemical
T2 construct: purchased Carna Biosciences, Inc. (Kobe, Japan)

[1] = tested on: FGFR1 and its downstream effectors (FRS2, MEK, ERK); experiment: Western blot of FGFR1 signaling in bFGF-stimulated RO82-W-1 cells; settings: 1 h treatment, then bFGF 20 ng/mL and heparin 10 min
BRK = biological target: T3, BRK (Homo sapiens, UniProt Q13882); experiment: Cell free kinase inhibition assay; assay type: biochemical
T3 construct: purchased Carna Biosciences, Inc. (Kobe, Japan)

[2] = tested on: 5 DTC xenograft models (K1, RO82-W-1, FTC-133, FTC-236, FTC-238); experiment: Human thyroid cancer xenograft models, tumor growth; assay type: in vivo, nude mice; settings: all 5 DTC xenograft models, 30 and 100 mg/kg oral once daily 14 days
Procedure: (§1) Nude mice (CAnN.Cg-Foxn1nu/CrlCrlj, female, 5-6 weeks old) were obtained from Charles River Laboratories Japan (Kanagawa, Japan). Mice were maintained under specific pathogen-free conditions and housed in barrier facilities on a 12 h light/dark cycle, with food and water ad libitum. All procedures using laboratory animals were done in accordance with all applicable institutional and government regulatory guidelines and policies and were performed in an animal facility accredited by the Center for Accreditation of Laboratory Animal Care of the Japan Health Sciences Foundation. Tumor cells were cultured in appropriate culture mediums. […] Then, 0.1-0.2 mL of the cell suspension was inoculated subcutaneously into the right flank region of each mouse. […] The tumor size was measured in two dimensions by using a caliper, and the volume was calculated by using the formula: tumor volume (mm^3) = 1/2 length (mm) × [width (mm)]^2. The change in tumor volume in the treated group relative to that in the control group was calculated according to the following formula: ΔT/C = (ΔT/ΔC) × 100%, where ΔT and ΔC are the change in tumor volume (i.e., growth) for the treated and vehicle control group, respectively. The percentage of tumor growth inhibition (%TGI) was calculated from the formula: [(1 − ΔT/ΔC) × 100].

[3] = tested on: 5 ATC xenograft models (8305C, 8505C, TCO-1, KHM-5M, HTC/C3); experiment: as above; assay type: in vivo, nude mice; settings: all 5 ATC xenograft models, 10 and 100 mg/kg oral once daily 14 days
Procedure: as §1

RET = experiment: Western blot of RET phosphorylation in TT xenografts; settings: 2 h after oral administration
FLT4/VEGFR3 = biological target: T4, FLT4/VEGFR3 (Homo sapiens, UniProt P35916); experiment: Cell free kinase inhibition assay; assay type: biochemical
T4 construct: purchased Carna Biosciences, Inc. (Kobe, Japan)

PDGFRα(V561D) = biological target: T5, PDGFRα(V561D) (Homo sapiens, UniProt P16234, V561D); experiment: Cell free kinase inhibition assay; assay type: biochemical
T5 construct: purchased Carna Biosciences, Inc. (Kobe, Japan)

CHK1 = biological target: T6, CHK1 (Homo sapiens, UniProt O14757); experiment: Cell free kinase inhibition assay; assay type: biochemical
T6 construct: purchased Carna Biosciences, Inc. (Kobe, Japan)

IKKb = biological target: T7, IKKb (Homo sapiens, UniProt O14920); experiment: Cell free kinase inhibition assay; assay type: biochemical
T7 construct: purchased Carna Biosciences, Inc. (Kobe, Japan)

INSR = biological target: T8, INSR (Homo sapiens, UniProt P06213); experiment: Cell free kinase inhibition assay; assay type: biochemical
T8 construct: purchased Carna Biosciences, Inc. (Kobe, Japan)

TT cells = experiment: Antiproliferation assay (WST-8); assay type: cell-based; settings: Homo sapiens, 240 h; TT (MTC), antiproliferative, 10 days; read-out: IC50
AKT1 = biological target: T9, AKT1 (Homo sapiens, UniProt P31749); experiment: Cell free kinase inhibition assay; assay type: biochemical
T9 construct: purchased Carna Biosciences, Inc. (Kobe, Japan)

FTC-238 cells = experiment: Antiproliferation assay (WST-8); assay type: cell-based, human; settings: Homo sapiens, 72 h; FTC-238 (DTC), antiproliferative, 3 days
CSK = biological target: T10, CSK (Homo sapiens, UniProt P41240); experiment: Cell free kinase inhibition assay; assay type: biochemical
T10 construct: purchased Carna Biosciences, Inc. (Kobe, Japan)

PDGFRβ = biological target: T11, PDGFRβ (Homo sapiens, UniProt P09619); experiment: Cell free kinase inhibition assay; assay type: biochemical
T11 construct: purchased Carna Biosciences, Inc. (Kobe, Japan)

FGFR2 = biological target: T12, FGFR2 (Homo sapiens, UniProt P21802); experiment: Cell free kinase inhibition assay; assay type: biochemical
T12 construct: purchased Carna Biosciences, Inc. (Kobe, Japan)

K1 cells = experiment: Antiproliferation assay (WST-8); assay type: cell-based, human; settings: Homo sapiens, 72 h; K1 (DTC), antiproliferative, 3 days
PIM1 = biological target: T13, PIM1 (Homo sapiens, UniProt P11309); experiment: Cell free kinase inhibition assay; assay type: biochemical
T13 construct: purchased Carna Biosciences, Inc. (Kobe, Japan)

SGK3 = biological target: T14, SGK3 (Homo sapiens, UniProt Q96BR1); experiment: Cell free kinase inhibition assay; assay type: biochemical
T14 construct: purchased Carna Biosciences, Inc. (Kobe, Japan)

FAK = biological target: T15, FAK (Homo sapiens, UniProt Q05397); experiment: Cell free kinase inhibition assay; assay type: biochemical
T15 construct: purchased Carna Biosciences, Inc. (Kobe, Japan)

RO82-W-1 cells = experiment: Antiproliferation assay (WST-8); assay type: cell-based, human; settings: Homo sapiens, 72 h; RO82-W-1 (DTC), antiproliferative, 3 days

T5 sequence (P16234 24-1089 V561D): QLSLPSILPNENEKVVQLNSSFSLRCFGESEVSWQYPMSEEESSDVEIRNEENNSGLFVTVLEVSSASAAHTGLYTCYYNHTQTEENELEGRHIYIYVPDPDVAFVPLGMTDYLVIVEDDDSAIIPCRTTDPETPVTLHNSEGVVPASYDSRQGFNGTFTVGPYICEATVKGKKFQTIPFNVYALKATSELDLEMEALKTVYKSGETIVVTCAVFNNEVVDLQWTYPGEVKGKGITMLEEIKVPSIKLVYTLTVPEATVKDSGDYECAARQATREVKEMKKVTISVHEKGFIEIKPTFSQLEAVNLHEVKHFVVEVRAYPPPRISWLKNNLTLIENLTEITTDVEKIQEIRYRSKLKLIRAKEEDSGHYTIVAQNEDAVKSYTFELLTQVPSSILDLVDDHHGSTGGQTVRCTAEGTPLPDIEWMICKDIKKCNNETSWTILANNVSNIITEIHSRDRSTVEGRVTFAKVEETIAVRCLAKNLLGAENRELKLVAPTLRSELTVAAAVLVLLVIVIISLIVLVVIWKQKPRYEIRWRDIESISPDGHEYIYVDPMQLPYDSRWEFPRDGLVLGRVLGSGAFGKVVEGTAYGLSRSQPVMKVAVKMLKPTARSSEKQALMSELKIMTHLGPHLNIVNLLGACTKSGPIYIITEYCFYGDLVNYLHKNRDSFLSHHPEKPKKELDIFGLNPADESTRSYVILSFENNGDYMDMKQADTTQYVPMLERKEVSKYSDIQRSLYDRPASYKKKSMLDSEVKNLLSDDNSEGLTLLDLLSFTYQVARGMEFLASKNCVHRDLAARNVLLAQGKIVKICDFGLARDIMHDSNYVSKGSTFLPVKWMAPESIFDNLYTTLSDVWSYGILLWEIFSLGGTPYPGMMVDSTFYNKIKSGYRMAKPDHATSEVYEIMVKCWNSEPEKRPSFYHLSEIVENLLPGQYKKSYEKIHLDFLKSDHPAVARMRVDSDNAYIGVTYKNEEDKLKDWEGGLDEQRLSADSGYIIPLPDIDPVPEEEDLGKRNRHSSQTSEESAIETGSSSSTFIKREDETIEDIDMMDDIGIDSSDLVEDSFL
T8 sequence (P06213 28-1382): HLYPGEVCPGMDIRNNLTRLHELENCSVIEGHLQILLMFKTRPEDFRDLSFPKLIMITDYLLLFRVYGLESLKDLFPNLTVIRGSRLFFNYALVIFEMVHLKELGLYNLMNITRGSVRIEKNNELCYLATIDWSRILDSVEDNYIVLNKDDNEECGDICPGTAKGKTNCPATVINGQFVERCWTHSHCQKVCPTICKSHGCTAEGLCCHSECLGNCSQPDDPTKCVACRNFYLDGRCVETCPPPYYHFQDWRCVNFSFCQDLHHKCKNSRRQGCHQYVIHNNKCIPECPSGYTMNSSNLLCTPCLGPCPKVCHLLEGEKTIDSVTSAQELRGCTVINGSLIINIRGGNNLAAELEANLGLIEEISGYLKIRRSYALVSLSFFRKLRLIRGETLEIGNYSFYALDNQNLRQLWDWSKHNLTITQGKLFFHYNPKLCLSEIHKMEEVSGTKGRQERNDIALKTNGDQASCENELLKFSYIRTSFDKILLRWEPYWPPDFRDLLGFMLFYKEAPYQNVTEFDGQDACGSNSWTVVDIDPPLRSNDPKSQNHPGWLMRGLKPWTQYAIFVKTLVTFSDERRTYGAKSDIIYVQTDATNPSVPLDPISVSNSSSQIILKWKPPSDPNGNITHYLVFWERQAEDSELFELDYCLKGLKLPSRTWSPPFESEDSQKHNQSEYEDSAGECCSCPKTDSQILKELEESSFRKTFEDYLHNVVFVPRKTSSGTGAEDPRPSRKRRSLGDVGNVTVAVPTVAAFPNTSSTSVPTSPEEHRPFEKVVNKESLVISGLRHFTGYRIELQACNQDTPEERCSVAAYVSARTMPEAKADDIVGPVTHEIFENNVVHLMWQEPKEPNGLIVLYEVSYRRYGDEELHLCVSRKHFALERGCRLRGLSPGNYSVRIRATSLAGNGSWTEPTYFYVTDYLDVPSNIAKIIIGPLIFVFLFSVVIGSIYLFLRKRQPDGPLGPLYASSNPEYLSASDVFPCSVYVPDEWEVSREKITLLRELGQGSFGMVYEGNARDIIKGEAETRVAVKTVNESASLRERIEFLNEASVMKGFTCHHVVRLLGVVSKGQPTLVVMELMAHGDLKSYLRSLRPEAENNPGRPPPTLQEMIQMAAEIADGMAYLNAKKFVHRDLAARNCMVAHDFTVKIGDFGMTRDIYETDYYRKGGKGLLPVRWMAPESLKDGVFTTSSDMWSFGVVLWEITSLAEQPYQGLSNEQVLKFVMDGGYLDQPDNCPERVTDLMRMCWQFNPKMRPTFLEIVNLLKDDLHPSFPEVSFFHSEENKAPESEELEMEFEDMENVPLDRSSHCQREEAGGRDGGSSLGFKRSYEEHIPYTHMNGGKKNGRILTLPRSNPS
T11 sequence (P09619 33-1106): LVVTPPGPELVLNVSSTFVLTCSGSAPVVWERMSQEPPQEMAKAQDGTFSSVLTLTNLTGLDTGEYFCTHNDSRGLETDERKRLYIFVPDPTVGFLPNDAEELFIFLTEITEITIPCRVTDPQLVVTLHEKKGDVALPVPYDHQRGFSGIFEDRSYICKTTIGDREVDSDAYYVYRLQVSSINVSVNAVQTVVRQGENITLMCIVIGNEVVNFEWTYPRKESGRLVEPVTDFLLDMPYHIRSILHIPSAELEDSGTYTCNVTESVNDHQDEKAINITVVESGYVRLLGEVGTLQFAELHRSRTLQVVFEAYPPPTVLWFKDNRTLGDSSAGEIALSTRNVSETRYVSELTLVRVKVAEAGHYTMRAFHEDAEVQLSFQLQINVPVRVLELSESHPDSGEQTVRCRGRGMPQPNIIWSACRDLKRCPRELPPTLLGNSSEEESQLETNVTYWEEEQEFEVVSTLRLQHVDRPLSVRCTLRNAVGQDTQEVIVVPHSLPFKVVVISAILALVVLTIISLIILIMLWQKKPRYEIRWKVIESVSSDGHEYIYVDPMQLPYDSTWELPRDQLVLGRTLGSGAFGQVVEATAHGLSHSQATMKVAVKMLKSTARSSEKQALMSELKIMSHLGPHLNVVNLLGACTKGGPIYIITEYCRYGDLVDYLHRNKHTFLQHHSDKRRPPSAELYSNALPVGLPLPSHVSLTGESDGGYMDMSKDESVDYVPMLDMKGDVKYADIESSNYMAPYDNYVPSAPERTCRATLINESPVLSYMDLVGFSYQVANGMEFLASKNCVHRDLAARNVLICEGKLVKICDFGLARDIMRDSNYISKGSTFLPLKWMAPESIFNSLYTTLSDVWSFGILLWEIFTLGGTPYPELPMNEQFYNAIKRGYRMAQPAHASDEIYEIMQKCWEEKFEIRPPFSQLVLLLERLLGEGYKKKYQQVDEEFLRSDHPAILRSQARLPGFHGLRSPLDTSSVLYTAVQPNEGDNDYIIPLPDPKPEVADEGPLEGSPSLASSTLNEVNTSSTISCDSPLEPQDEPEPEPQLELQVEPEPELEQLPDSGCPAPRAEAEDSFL
T3 sequence (Q13882 whole entry): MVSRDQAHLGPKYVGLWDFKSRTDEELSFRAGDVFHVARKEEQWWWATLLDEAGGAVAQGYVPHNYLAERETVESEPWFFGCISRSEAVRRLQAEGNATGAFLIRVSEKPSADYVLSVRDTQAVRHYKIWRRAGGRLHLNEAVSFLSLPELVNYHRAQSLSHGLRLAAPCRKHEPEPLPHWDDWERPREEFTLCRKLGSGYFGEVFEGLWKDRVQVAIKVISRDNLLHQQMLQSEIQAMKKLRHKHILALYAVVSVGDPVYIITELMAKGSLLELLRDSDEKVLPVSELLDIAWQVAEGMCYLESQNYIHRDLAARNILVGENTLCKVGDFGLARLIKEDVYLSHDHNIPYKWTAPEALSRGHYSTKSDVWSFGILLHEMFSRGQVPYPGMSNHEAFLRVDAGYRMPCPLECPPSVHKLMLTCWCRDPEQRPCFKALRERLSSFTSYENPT
T9 sequence (P31749 whole entry): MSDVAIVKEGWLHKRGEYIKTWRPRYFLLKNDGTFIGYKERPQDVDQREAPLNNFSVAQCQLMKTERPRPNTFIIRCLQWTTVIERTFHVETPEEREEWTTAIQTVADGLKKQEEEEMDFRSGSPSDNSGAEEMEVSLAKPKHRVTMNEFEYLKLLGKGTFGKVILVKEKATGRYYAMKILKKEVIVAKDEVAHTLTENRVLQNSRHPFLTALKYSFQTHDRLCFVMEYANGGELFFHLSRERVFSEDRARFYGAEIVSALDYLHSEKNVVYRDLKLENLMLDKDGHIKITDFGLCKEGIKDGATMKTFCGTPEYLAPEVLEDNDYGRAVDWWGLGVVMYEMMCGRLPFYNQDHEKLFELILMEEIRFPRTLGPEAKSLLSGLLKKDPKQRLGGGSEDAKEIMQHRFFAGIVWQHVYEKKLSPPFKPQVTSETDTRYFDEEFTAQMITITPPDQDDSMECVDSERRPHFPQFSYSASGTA
T10 sequence (P41240 whole entry): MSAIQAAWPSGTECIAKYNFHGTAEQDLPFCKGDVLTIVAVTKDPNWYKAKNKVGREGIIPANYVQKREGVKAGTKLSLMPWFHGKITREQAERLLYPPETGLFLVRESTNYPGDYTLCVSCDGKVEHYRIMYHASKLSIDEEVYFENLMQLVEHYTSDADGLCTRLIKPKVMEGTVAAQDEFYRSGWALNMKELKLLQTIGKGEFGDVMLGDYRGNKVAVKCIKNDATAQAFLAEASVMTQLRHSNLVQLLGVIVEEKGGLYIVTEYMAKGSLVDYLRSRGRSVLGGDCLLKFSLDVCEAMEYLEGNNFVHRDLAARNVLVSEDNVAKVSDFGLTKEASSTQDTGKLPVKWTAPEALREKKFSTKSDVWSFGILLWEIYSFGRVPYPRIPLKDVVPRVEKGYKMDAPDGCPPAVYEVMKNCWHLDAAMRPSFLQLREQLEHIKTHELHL

Q: What does the source list for `COc1cc2nccc(Oc3ccc(NC(=O)NC4CC4)c(Cl)c3)c2cc1C(N)=O` [Lenvatinib, Lenvatinib mesilate]?
A: IC50 (HGK): 400 nM; IC50 (EPHB2): 660 nM; phosphorylation of FGFR1, FRS2, MEK, and ERK [1]: inhibited the phosphorylation of FGFR1 and of FRS2, MEK, and ERK, in a concentration-dependent manner; IC50 (BRK): 170 nM; antitumor activity [2]: significant antitumor activity; antitumor activity [3]: significant antitumor activity; RET phosphorylation (RET): inhibition of RET phosphorylation; IC50 (FLT4/VEGFR3): 2.3 nM; IC50 (PDGFRα(V561D)): 25 nM; IC50 (CHK1): > 10000 nM; IC50 (IKKb): > 10000 nM; IC50 (INSR): > 10000 nM; IC50 (TT cells): 78 nM; IC50 (AKT1): > 10000 nM; IC50 (FTC-238 cells): 18000 nM; IC50 (CSK): 2600 nM; IC50 (PDGFRβ): 160 nM; IC50 (FGFR2): 27 nM; IC50 (K1 cells): 22000 nM; IC50 (PIM1): > 10000 nM; IC50 (SGK3): > 10000 nM; IC50 (FAK): > 10000 nM; IC50 (RO82-W-1 cells): 3800 nM
